From paper PMC6203334 (Medicinal chemistry research : an international journal for …, 2018) come the findings set out here.

Common to all, as to format: cell-based
Experiment [1] deals with Leishmania donovani promastigotes. Nature of the experiment: In vitro antileishmanial assay, promastigotes. As to conditions: for IC50: read-out: L. donovani promastigotes IC50; for IC90: read-out: L. donovani promastigotes IC90.
Experiment [2] deals with Leishmania donovani axenic amastigotes. In words: In vitro antileishmanial assay, axenic amastigotes. To be noted: for IC50: read-out: L. donovani Axenic amastigotes IC50; for IC90: read-out: L. donovani Axenic amastigotes IC90.
Experiment [3] concerns Plasmodium falciparum chloroquine resistant (W2, Indo China). Nature of the experiment: In vitro antimalarial assay. To be noted: W2, read-out: P. falciparum IC50 (W2).
For experiment [4], the system named is Plasmodium falciparum chloroquine sensitive (D6, Sierra Leone). Nature of the experiment: In vitro antimalarial assay. As to conditions: D6, read-out: P. falciparum IC50 (D6).
Experiment [5] concerns Blood stage forms of Trypanosoma brucei brucei. In words: In vitro antitrypanosomal assay. To be noted: NA: not active.

The structures appear in SMILES notation.

A word on the IC50: it is the concentration that gives 50% inhibition. Usually IC90 stands for the concentration needed for an effect of 90%. With `C[C@@H]1[C@H](O)[C@@H](C)/C=C/C=C/C=C/C=C/C=C/C=C/C=C/[C@H](O[C@@H]2O[C@H](C)[C@@H](O)[C@H](N)[C@@H]2O)C[C@@H]2O[C@](O)(C[C@@H](O)C[C@@H](O)[C@H](O)CC[C@@H](O)C[C@@H](O)CC(=O)O[C@H]1C)C[C@H](O)[C@H]2C(=O)O` [Amp B, Amphotericin B], in experiment [1], the IC50 is 192 nM and the IC90 is 312 nM. In addition, in experiment [2], the IC50 amounted to 1730 nM and the IC90 came out at 2000 nM.
On to `CCN(CC)CCCC(C)Nc1ccnc2cc(Cl)ccc12` (stereo not shown) [CQ, chloroquine], for which the figures for the IC50 in experiment [3] and in experiment [4] were 460 nM and 52 nM, respectively.
`NCCCC(N)(C(=O)O)C(F)F` (stereo not shown) [DFMO, difluoromethylornithine]: the “T. brucei IC9” value in experiment [5] (Table 3) amounted to 59.175 ± 5.748 µM. The IC50 in experiment [5] (read-out: Trypanosoma brucei IC50) worked out at 21300 ± 2010 nM. Further, the IC90 in experiment [5] (read-out: Trypanosoma brucei IC90) is 59200 ± 5750 nM.
Regarding `N=C(N)c1ccc(OCCCCCOc2ccc(C(=N)N)cc2)cc1` [Pent, pentamidine], the results for the IC50 in experiment [1] and in experiment [2] were 2040 nM and 15300 nM, respectively. In addition, the IC90 amounted to 3670 nM in experiment [1] and 16900 nM in experiment [2].
